Measured values reported in patent publication US20060029576A1, “Biological control of pythium disease in crops” (HER MAJESTY THE QUEEN IN RIGHT OF CANADA, THE MINISTER OF …, priority 2004, published 2006).

Assays:
Format in all cases: in vivo
Pythium spp. [1] = assay: Seed treatment of field pea, field naturally infested with Pythium spp. (2001 field experiments); details: 4 weeks after planting
Experimental: (§1) The selected strains of R. leguminosarum bv. viceae (R12, R20, and R21) effective against Pythium damping-off of sugar beet in indoor experiments were tested for control of damping-off of sugar beet and field pea in fields naturally infested with Pythium spp. at the Lethbridge Research Centre, Alberta. […] (Bardin et al. 2003). The seeds were coated with the bacterial slurry as described previously using 2.4 and 9.5 mL bacterial slurry/100 seeds of sugar beet and field pea, respectively. The seeds were dried overnight at room temperature on a metallic mesh, which was placed on a paper towel to absorb the excess slurry. The number of bacteria coated onto the seeds was similar for the four bacterial strains, ranging from 1.4×10^6±0.2×10^6 to 2.3×10^7±0.2×10^7 cfu/seed for sugar beets and 3.0×10^7±0.3×10^7 to 1.2×10^8±0.4×10^8 cfu/seed for field peas. The coated seeds were then stored at 4° C. until planting. Bacterial counts on the seeds were determined by vortexing five coated seeds in 5 mL of distilled sterile water for 30 seconds, and by plating serial dilutions on TY agar medium in Petri dishes for Rhizobium strains and on PDA in Petri dishes for P. fluorescens. […] Seedling emergence was recorded 4 weeks after planting and was compared with the uninoculated and fungicide controls. […]

Pythium spp. [2] = assay: Seed treatment of sugar beet, field naturally infested with Pythium spp. (2001 field experiments); details: 4 weeks after planting
Experimental: as §1

[3] = test system: Pythium spp. (predominantly Pythium sp. ‘group G’); assay: Seed treatment of field pea cv. Trapper, damping-off field experiment 2004; details: for Plant Height (cm): 6-node stage (4 weeks after planting)
Experimental: (§2) The strains of Rhizobium leguminosarum bv. viceae used for the study were 99A1, R12, R20, and R21. Strain 99A1 was originated from the commercial pea inoculant produced by Agrium, Inc. Calgary, Alberta. Bacterial cultures were grown on tryptone-yeast agar (TYA) (Beringer, 1974) in Petri dishes for 48 h at room temperature (20±2° C.). The resulting colonies were suspended in 5 ml per dish of 1% methyl cellulose (Sigma-Aldrich, Milwaukee, Wis.) in sterile distilled water, and scraped gently with a spatula to obtain bacterial slurries. Seeds of field pea cv. Trapper and lentil cv. Laird were soaked for 20 minutes in the slurries, spread on a metallic mesh sheet with paper towel underneath to absorb the excess slurry, and air-dried overnight under a fume hood. Enumeration of bacteria coated onto seeds was done by placing 5 seeds in a test tube with 5 ml of sterile distilled water, vortexing for 30 sec, and plating serial dilutions on TYA, 0.1 ml per 9-cm dish. After incubation at room temperature for 3 days, bacterial colonies developed in each dish were counted. There were two replicates for each treatment.
(§3) Field experiments were conducted at the Agriculture and Agri-Food Canada Research Centre near Lethbridge, Alberta, Canada, in a field naturally infested with Pythium spp. (predominantly Pythium sp. ‘group G’). For the pea experiment, seeds were planted using a plot seeder on 28 May 2004, in 4-row plots with a row length of 5 m, a row spacing of 22.5 cm, and a plant spacing of 5 cm (i.e. 20 seeds/m). Untreated seeds and fungicide-treated seeds (Thiram™ at the rate of 30 g/25 kg seed) (Gustafson; Calgary, Alberta, Canada) were used as controls. Treatments were arranged in a randomized block design with 6 replicates. For the lentil experiment, seeds were planted on the same date and using the same parameters as for field pea.
(§4) Seedling emergence for each plot was determined. The number of healthy seedlings and the number of wilted seedlings were counted in the middle 3 m of each row, and the percent loss due to pre-emergent and post-emergent damping-off were calculated, as well as the final stand establishment. The causal agent of seedling death was determined by collecting 10 non-emerged seedlings and all of the wilted seedlings from each plot, washing in running water, surface sterilizing in 70% ethanol for 90 sec, incubating on potato dextrose agar (PDA) in Petri dishes at room temperature for 7 days, and examining the organisms derived from each sample. Results of reisolation of diseased seedlings were used to calculate the incidence of damping-off due to Pythium spp. for each plot.
(§5) Seedling height for each plot was determined (6-node stage for peas; 5-node stage for lentils). For each row, ten seedlings were randomly selected and the distance from the first node to the terminal branch of each seedling was measured.
(§6) Differences between treatments for incidence of damping-off, seedling emergence and seedling height data were analyzed for statistical significance using analysis of variance (ANOVA) and means of treatments for each set of data were separated using Duncan's multiple range test at the P=0.05 level. All statistical analyses were done using SAS Statistical Analysis Software, Version 8.2 (SAS Institute Inc., Cary, N.C. 2001).

[4] = test system: Pythium spp. (predominantly Pythium sp. ‘group G’); assay: Seed treatment of lentil cv. Laird, damping-off field experiment 2004
Experimental: as §2, §3, §4, §5, §6

CN(C)C(=S)SSC(=S)N(C)C [Thiram]
Emergence (%) Pea (Pisum sativum) August 2001 (Pythium spp. [1]; untreated control 12.8): 48.3a %
Emergence (%) Pea (Pisum sativum) May 2001 (Pythium spp. [1]; untreated control 41.4): 71.4a %
Emergence (%) Sugar beet (Beta vulgaris) August 2001 (Pythium spp. [2]; untreated control 6.5): 27.0a %
Emergence (%) Sugar beet (Beta vulgaris) May 2001 (Pythium spp. [2]; untreated control 10.0): 28.6a %
Plant Height (cm) ([3]; control 11.1): 14.6 cm
Plant Height (cm) ([3]; control 11.1, listed as Fungicide (Thiram)): 14.6 c cm
Damping-off (%) Post-emergent ([3]; control 0.2): 0.6%
Final Stand (%) ([3]; control 37.8): 79.1 c %
Damping-off (%) by Pythium ([3]; control 55.4, listed as Fungicide (Thiram)): 16.7 c %
Damping-off (%) by Pythium ([3]; control 55.4, listed as fungicide): 16.7%
Damping-off (%) Pre-emergent ([3]; control 62.0): 20.3%
Damping-off (%) Pre-emergent ([3]; control 62.0, listed as Fungicide (Thiram)): 20.3 c %
Plant Height (cm) ([4]; 5-node stage (4 weeks after planting), control 11.2): 11.4 a cm
Damping-off (%) Post-emergent ([4]; control 2.7): 2.6%
Damping-off (%) by Pythium ([4]; control 35.3, listed as Fungicide (Thiram)): 22.8 d %
Damping-off (%) by Pythium ([4]; control 35.3, listed as fungicide): 22.8%
Damping-off (%) Pre-emergent ([4]; control 46.3): 34.2%
Damping-off (%) Pre-emergent ([4]; control 46.3, listed as Fungicide (Thiram)): 34.2 c %
Final Stand (%) ([4]; control 51.0): 63.2 d %
